# Reference: the NIST ThermoML archive (doi:10.1016/j.fluid.2018.07.028)
# Numbers after ± are expanded uncertainties.
# Assay: activity coefficient (dimensionless); of the first substance listed, at infinite dilution; xn = mol fraction of the nth substance listed
# Details: 101.33 kPa, Liquid, Chromatography, x1 = 0
compound,measurement,setting,value
Cc1ccccc1 [toluene] + CCCC[P+](CCCC)(CCCC)CCCC.O=S(=O)([N-]S(=O)(=O)C(F)(F)F)C(F)(F)F,activity coefficient,358.15 K,1.11 ± 0.07
same,activity coefficient,368.15 K,1.16 ± 0.07
same,activity coefficient,378.15 K,1.2 ± 0.08
same,activity coefficient,388.15 K,1.24 ± 0.08
same,activity coefficient,398.15 K,1.28 ± 0.08
same,activity coefficient,408.15 K,1.32 ± 0.09
C=COC(C)=O [vinyl acetate] + CCCC[P+](CCCC)(CCCC)CCCC.O=S(=O)([N-]S(=O)(=O)C(F)(F)F)C(F)(F)F,activity coefficient,358.15 K,0.983 ± 0.062
same,activity coefficient,368.15 K,1.01 ± 0.06
same,activity coefficient,378.15 K,1.04 ± 0.07
same,activity coefficient,388.15 K,1.07 ± 0.07
same,activity coefficient,398.15 K,1.1 ± 0.07
same,activity coefficient,408.15 K,1.13 ± 0.07
O [water] + CCCC[P+](CCCC)(CCCC)CCCC.O=S(=O)([N-]S(=O)(=O)C(F)(F)F)C(F)(F)F,activity coefficient,358.15 K,4.2 ± 0.29
same,activity coefficient,368.15 K,3.85 ± 0.26
same,activity coefficient,378.15 K,3.53 ± 0.24
same,activity coefficient,388.15 K,3.26 ± 0.22
same,activity coefficient,398.15 K,3.02 ± 0.21
same,activity coefficient,408.15 K,2.81 ± 0.19
